PMC7593776 (RSC Medicinal Chemistry, 2020)

Target: ERK2 (Homo sapiens, UniProt P28482)
Test: Z′-LYTE kinase inhibition assay
Type: biochemical
Conditions: ATP concentration 100 μM

ERK2, sequence (P28482 whole entry): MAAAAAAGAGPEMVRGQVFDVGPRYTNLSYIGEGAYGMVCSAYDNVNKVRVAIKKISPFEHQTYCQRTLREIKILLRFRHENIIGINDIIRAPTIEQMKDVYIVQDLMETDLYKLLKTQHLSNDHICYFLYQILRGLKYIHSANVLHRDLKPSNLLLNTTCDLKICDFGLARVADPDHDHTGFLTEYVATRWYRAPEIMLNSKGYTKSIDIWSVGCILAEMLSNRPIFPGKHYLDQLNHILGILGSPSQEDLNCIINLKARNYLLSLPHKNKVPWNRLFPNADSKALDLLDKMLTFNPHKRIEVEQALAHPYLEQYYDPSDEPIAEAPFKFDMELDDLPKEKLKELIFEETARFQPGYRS

`Nc1cccc2cc[nH]c(=O)c12` [MR1] was tested, and the “inhibition (in words)” value was “not inhibited”.
